One compound from article PMC9146377, “Design and Synthesis of Novel Bis-Imidazolyl Phenyl Butadiyne Derivatives as HCV NS5A Inhibitors” (Pharmaceuticals, 2022) can be followed below.

As usually defined, the EC50 is the midpoint of the concentration-response curve. Broadly, the CC50 is the concentration that lowers cell viability or growth by half. In general, melting point refers to the temperature of the solid-liquid transition.

For series [1], the system named is HCV genotype 1a (strain H77S.3) full-length reporter viral RNA. Kind of series: microbe, parasite or virus in culture. The series is classed as cell-based, Hepatitis C virus.
Series [2] relates to subgenomic replicon of HCV GT 3a (strain S52). In words: Anti-HCV luciferase assay, genotype 3a replicon in Huh7.5-3a cells. The series is classed as cell-based. The settings on record: Hepatitis C virus, GT3A, read-out: Gt3a EC50. On the procedure: Specifically, we determined the activity of 10a against viral replication by measuring luciferase activity in Huh7-JFH1, Huh7.5-3a, and Huh7.5-4a stable cell lines containing subgenomic replicons of HCV GT 2a (strain JFH1), GT 3a (strain S52) and GT 4a (strain ED43), respectively. In addition, the activity of 10a was determined in Huh7-Lunet cells electroporated with the in vitro transcribed full-length reporter viral RNA of HCV genotype 1a (strain H77S.3). […]
The anti-HCV assay in replicon cells was performed by seeding 1 × 10^4 cells per well in a 96-well plate. […] Cells were lysed after 72 h, and F-Luc activity was measured. […] At 72 h post-treatment, cell supernatants were collected, and G-Luc activity was measured. In addition, the cells were lysed for total protein quantification.
Relative luminescence units (RLU) were expressed as a percentage of the respective units derived from DMSO-treated cells (control). […]
The F-Luc activity was measured using the Luciferase Assay System (Promega, Madison, WI, USA), as recommended by the manufacturer. The G-Luc activity was measured using 12 μM coelenterazine (Promega) in assay buffer (50 mM potassium phosphate, pH 7.4, 500 mM NaCl, 1 mM EDTA). […] The F-Luc activity was normalized to the total protein amount determined using the Bradford assay reagent (Pierce, Waltham, MA, USA).

Series [3] in a line: Cytotoxicity assay (intracellular ATP levels), Table 4 Gt1a. In kind it is cell-based. The settings on record: human, Huh7-Lunet cells, HCV 1a (H77) full length. On the procedure: Intracellular ATP levels were measured to determine the cytotoxicity of the compounds in the treated cells. In 96-well plates, 10^4 cells per well were seeded, incubated with serial dilutions of the compounds or DMSO as a control for 72 h at 37 °C (5% CO2) and lysed for ATP measurement. ATP levels were measured using the ViaLight HS BioAssay kit (Lonza, Basel, Switzerland) in a GloMax 20/20 single-tube luminometer (Promega) for 1 s, according to the manufacturer’s protocol. Values were normalized to total protein amounts and used to determine the compound concentration causing 50% cell death (CC50). Nonlinear regression analysis was performed using Prism 5.0 software (GraphPad Software Inc., San Diego, CA, USA).

Series [4] relates to (+) strand HCV RNA, Con1 (GT 1b) subgenomic replicon. In words: RT-qPCR quantification of HCV RNA in Huh5-2 replicon cells. The series is classed as cell-based, Hepatitis C virus. To be noted: normalized to YWHAZ. The method, then:
(§1) The potency of compound 10a measured by the luciferase assay in HCV GT 1b was confirmed at the level of viral RNA and NS5A protein expression. Huh5-2 replicon cells were treated with 10a in serial dilutions, or its solvent DMSO (control), and viral RNA was quantified by reverse transcription-quantitative polymerase chain reaction (RT-qPCR). NS5A protein levels were evaluated by indirect immunofluorescence combined with confocal microscopy analysis. […] Nuclei were stained with propidium iodide (PI) as a cell viability control.
Extraction of total RNA from Huh5-2 cells was performed using TRIzol reagent (Ambion, Austin, TX, USA), according to the manufacturer’s instructions. Replicon RNA was quantified with reverse transcription (RT) and quantitative real-time polymerase chain reaction (qPCR). RT was performed using a Con1 IRES-specific primer (IRES-R: 5′-[…]-3′) and Moloney Murine Leukemia Virus (MMLV) reverse transcriptase (Promega). […]
Figure 6 Inhibition of HCV RNA and protein expression levels exerted by compound 10a in HCV Con1 (GT 1b) subgenomic replicon cell line. […] Values are expressed as a percentage of those obtained from cells treated with the solvent (control). […]
Background: In qPCR the cycle at which signal appears reflects the starting amount.

For series [5], the system named is NS5A protein expression, HCV Con1 (GT 1b). In words: Indirect immunofluorescence for NS5A in Huh5-2 replicon cells. The series is classed as cell-based, Hepatitis C virus. The settings on record: 10-fold serial dilutions, confocal microscopy. The method, then: as §1
An indirect immunofluorescence analysis of Con1 NS5A was performed as described previously. Propidium iodide (Sigma-Aldrich, St. Louis, MO, USA) was used to stain the DNA. Images were obtained with a Leica TCS-SP8 Confocal Microscope (Wetzlar, Germany).
Figure 6 Inhibition of HCV RNA and protein expression levels exerted by compound 10a in HCV Con1 (GT 1b) subgenomic replicon cell line. (A) RT-qPCR analysis of (+) strand HCV RNA levels in Huh5-2 replicon cells treated with 10-fold serial dilutions of compound 10a or the solvent DMSO. Values are expressed as a percentage of those obtained from cells treated with the solvent (control). The housekeeping gene YWHAZ (tyrosine 3-monooxygenase/tryptophan 5-monooxygenase activation protein zeta) was used as a normalization control. […]
In general terms: A replicon is a self-replicating genome or part of one, used to study replication in cells.

`COC(=O)N[C@@H](C(=O)N1CCC[C@H]1c1ncc(-c2cccc(C#CC#Cc3cccc(-c4cnc([C@@H]5CCCN5C(=O)[C@H](NC(=O)OC)c5ccccc5)[nH]4)c3)c2)[nH]1)c1ccccc1` [Compound 10a, Dimethyl ((1R,1′R)-((2S,2′S)-((buta-1,3-diyne-1,4-diylbis(3,1-phenylene))bis(1H-imidazole-5,2-diyl))bis(pyrrolidine-2,1-diyl))bis(2-oxo-1-phenylethane-2,1-diyl))dicarbamate]: the melting point is 126 to 128 °C. Moreover, the “Gt1a SI” value in series [1] (HCV 1a (H77) full length) is on record as over 2792.52. In addition, in series [1] (Hepatitis C virus, Huh-7, 72 h, read-out: Gt1a EC50), the EC50 was found to be 35.8 nM. Further, the EC50 in series [2] is 128 nM. The CC50 at 72 h in series [3] is over 100 µM. A half-maximal effect in series [4] (Hepatitis C virus, GT1B, Huh-5-2, RT-qPCR) (EC50) was put at 0.255 nM. This compound gave a half-maximal effective concentration (EC50) in series [4] (RT-qPCR) of 0.25 nM. In series [5], the NS5A protein expression entry was “reduction of NS5A expression”.
